In US20220347171A1, “TREATMENT OF PRURIGO NODULARIS” (TREVI THERAPEUTICS, INC., priority 2016, published 2022):
Where a name gives a salt, the structure may show the parent alone.

Tested on: prurigo nodularis patients
Assay: TR03ext (Example 3): Prurigo Activity Score (PAS) healed lesions; Stage 0 100% healed, Stage 1 75%-99%, Stage 2 50%-74%, Stage 3 25%-49%, Stage 4 0-24% healed
Format: in vivo, human
Text: In some embodiments, after the treatment the patient experiences a substantial reduction of itch that is characterized by at least one category/stage improvement in Prurigo Activity Score (PAS). In particular embodiments, after the treatment the patient experiences a reduction of itch that results in at least one category/stage improvement in Prurigo Activity Score (PAS) domains of number of prurigo lesions, prurigo lesions with excoriations/crusts and/or healed prurigo lesions. The PAS consists of 7 qualitative and quantitative measurements related to the examination of the skin. Type, number, distribution, affected body parts, and quantitative number of lesions in a representative body part are documented. The biggest lesion and the most representative lesion are monitored with documentation of height and area measurements. Prurigo lesion activity is recorded as a percentages based on their stage (0-4). In some embodiments, number measurements of lesions on the body have four numerical categories: 0, 1-19, 20-100 and >100. In some embodiments, prurigo lesions with excoriations/crusts have five categories: Stage 4 (76%-100%), Stage 3 (51%-75%), Stage 2 (26%-50%), Stage 1 (1-25%) and Stage 0 (0%). In some embodiments, healed prurigo lesions have five categories: Stage 4 (0-24%), Stage 3 (25-49%), Stage 2 (50-74%), Stage 1 (75%-99%), Stage 0 (100%).
This clinical study was a Phase 2 Open Label Extension Study (clinical study TR03ext) of the randomized, double-blind, 3-parallel arm, placebo controlled dose ranging study described in Example 2. All those subjects who were randomized, and then completed Example 2 study, were eligible to participate in the Extension Study.
The primary endpoint was a description of the overall incidence and nature of Treatment-Emergent AEs (TEAES) during weeks 5-50 of the study. Exploratory efficacy endpoints included Change from Baseline patient reported outcome measures of Worst itch NRS, itchy VRS and ItchyQoL, by Treatment Period study visit and Baseline NRS score. There was also an assessment of any potential skin lesion changes over time using the metrics of the PAS.
Patients in Extension Study were titrated over a dose range of 30 mg QD to 180 mg BID based on tolerability. The selected dose range was based on Example 2 study whereby patients were titrated from a 30 mg QD dose either to 30 mg BID, 60 mg BID, 90 mg BID, 120 mg BID or a 180 mg BID dose. The highest dose proposed was 180 mg BID (360 mg daily dose), and was well below the highest recommended daily treatment of 160 mg IV (equivalent to 960 mg oral) for the current marketed parenteral administered product.
Tables 12, 13 and 14 display healed lesion PAS data for subjects who received treatment for at least 6 months, subjects who received treatment for at least 9 months and subjects who completed 50 weeks of treatment in the study, respectively. The status of the healed lesion activity is reported as percentages based on their stage (0-4) using a grading system: Stage 0 (100% healed); Stage 1 (75%-99% healed); Stage 2 (50%-74% healed); Stage 3 (25%-49% healed); Stage 4: 0-24% healed. Thus the higher the stage, the […] the prurigo skin pathology.

[1] = treatment for at least 6 months
[2] = treatment for at least 9 months

## Oc1ccc2c3c1OC1[C@@H](O)CC[C@@]4(O)[C@@H](C2)N(CC2CCC2)CC[C@]314 (stereo partly drawn) [Nalbuphine, 17-(cyclobutylmethyl)-4,5α-epoxymorphinian-3, 6α, 14-triol, hydrochloride]
After 6 months, 10/16
  Subjects with at least one category improvement in the percentage of healed lesions (PAS): 62.5%
After 9 months, 7/13
  Subjects with at least one category improvement in the percentage of healed lesions (PAS): 53.8%
After 12 months, 6/12
  Subjects with at least one category improvement in the percentage of healed lesions (PAS): 50%
Treatment for 50 weeks
  Healed lesion PAS Category Shift: Baseline Stage 0 to Last Observed Stage 0: 1 (7.7) Number (%) of Subjects
  Healed lesion PAS Category Shift: Baseline Stage 0 to Last Observed Stage 1: 0 Number (%) of Subjects
  Healed lesion PAS Category Shift: Baseline Stage 0 to Last Observed Stage 2: 0 Number (%) of Subjects
  Healed lesion PAS Category Shift: Baseline Stage 0 to Last Observed Stage 3: 0 Number (%) of Subjects
  Healed lesion PAS Category Shift: Baseline Stage 0 to Last Observed Stage 4: 0 Number (%) of Subjects
  Healed lesion PAS Category Shift: Baseline Stage 1 to Last Observed Stage 0: 0 Number (%) of Subjects
  Healed lesion PAS Category Shift: Baseline Stage 1 to Last Observed Stage 1: 2 (15.4) Number (%) of Subjects
  Healed lesion PAS Category Shift: Baseline Stage 1 to Last Observed Stage 2: 1 (7.7) Number (%) of Subjects
  Healed lesion PAS Category Shift: Baseline Stage 1 to Last Observed Stage 3: 0 Number (%) of Subjects
  Healed lesion PAS Category Shift: Baseline Stage 1 to Last Observed Stage 4: 0 Number (%) of Subjects
  Healed lesion PAS Category Shift: Baseline Stage 2 to Last Observed Stage 0: 0 Number (%) of Subjects
  Healed lesion PAS Category Shift: Baseline Stage 2 to Last Observed Stage 1: 3 (23.1) Number (%) of Subjects
  Healed lesion PAS Category Shift: Baseline Stage 2 to Last Observed Stage 2: 0 Number (%) of Subjects
  Healed lesion PAS Category Shift: Baseline Stage 2 to Last Observed Stage 3: 0 Number (%) of Subjects
  Healed lesion PAS Category Shift: Baseline Stage 2 to Last Observed Stage 4: 0 Number (%) of Subjects
  Healed lesion PAS Category Shift: Baseline Stage 3 to Last Observed Stage 0: 0 Number (%) of Subjects
  Healed lesion PAS Category Shift: Baseline Stage 3 to Last Observed Stage 1: 0 Number (%) of Subjects
  Healed lesion PAS Category Shift: Baseline Stage 3 to Last Observed Stage 2: 0 Number (%) of Subjects
  Healed lesion PAS Category Shift: Baseline Stage 3 to Last Observed Stage 3: 2 (15.4) Number (%) of Subjects
  Healed lesion PAS Category Shift: Baseline Stage 3 to Last Observed Stage 4: 0 Number (%) of Subjects
  Healed lesion PAS Category Shift: Baseline Stage 4 to Last Observed Stage 0: 1 (7.7) Number (%) of Subjects
  Healed lesion PAS Category Shift: Baseline Stage 4 to Last Observed Stage 1: 0 (7.7) Number (%) of Subjects
  Healed lesion PAS Category Shift: Baseline Stage 4 to Last Observed Stage 2: 1 (7.7) Number (%) of Subjects
  Healed lesion PAS Category Shift: Baseline Stage 4 to Last Observed Stage 3: 1 (7.7) Number (%) of Subjects
  Healed lesion PAS: Last Observed PAS Result Stage 0: 2 (15.4) Number (%) of Subjects
  Healed lesion PAS: Last Observed PAS Result Stage 1: 6 (46.1) Number (%) of Subjects
  Healed lesion PAS: Last Observed PAS Result Stage 2: 2 (15.4) Number (%) of Subjects
  Healed lesion PAS: Last Observed PAS Result Stage 3: 3 (23.1) Number (%) of Subjects
  Healed lesion PAS: Last Observed PAS Result Stage 4: 1 (7.7) Number (%) of Subjects
[1]
  Healed lesion PAS Category Shift: Baseline Stage 0 to Last Observed Stage 0: 1 (5.9) Number (%) of Subjects
  Healed lesion PAS Category Shift: Baseline Stage 0 to Last Observed Stage 1: 0 Number (%) of Subjects
  Healed lesion PAS Category Shift: Baseline Stage 0 to Last Observed Stage 2: 0 Number (%) of Subjects
  Healed lesion PAS Category Shift: Baseline Stage 0 to Last Observed Stage 3: 0 Number (%) of Subjects
  Healed lesion PAS Category Shift: Baseline Stage 0 to Last Observed Stage 4: 0 Number (%) of Subjects
  Healed lesion PAS Category Shift: Baseline Stage 1 to Last Observed Stage 0: 0 Number (%) of Subjects
  Healed lesion PAS Category Shift: Baseline Stage 1 to Last Observed Stage 1: 2 (11.8) Number (%) of Subjects
  Healed lesion PAS Category Shift: Baseline Stage 1 to Last Observed Stage 2: 1 (5.9) Number (%) of Subjects
  Healed lesion PAS Category Shift: Baseline Stage 1 to Last Observed Stage 3: 0 Number (%) of Subjects
  Healed lesion PAS Category Shift: Baseline Stage 1 to Last Observed Stage 4: 0 Number (%) of Subjects
  Healed lesion PAS Category Shift: Baseline Stage 2 to Last Observed Stage 0: 1 (5.9) Number (%) of Subjects
  Healed lesion PAS Category Shift: Baseline Stage 2 to Last Observed Stage 1: 3 (17.6) Number (%) of Subjects
  Healed lesion PAS Category Shift: Baseline Stage 2 to Last Observed Stage 2: 0 Number (%) of Subjects
  Healed lesion PAS Category Shift: Baseline Stage 2 to Last Observed Stage 3: 0 Number (%) of Subjects
  Healed lesion PAS Category Shift: Baseline Stage 2 to Last Observed Stage 4: 0 Number (%) of Subjects
  Healed lesion PAS Category Shift: Baseline Stage 3 to Last Observed Stage 0: 0 Number (%) of Subjects
  Healed lesion PAS Category Shift: Baseline Stage 3 to Last Observed Stage 1: 1 (5.9) Number (%) of Subjects
  Healed lesion PAS Category Shift: Baseline Stage 3 to Last Observed Stage 2: 0 Number (%) of Subjects
  Healed lesion PAS Category Shift: Baseline Stage 3 to Last Observed Stage 3: 2 (11.8) Number (%) of Subjects
  Healed lesion PAS Category Shift: Baseline Stage 3 to Last Observed Stage 4: 0 Number (%) of Subjects
  Healed lesion PAS Category Shift: Baseline Stage 4 to Last Observed Stage 0: 1 (5.9) Number (%) of Subjects
  Healed lesion PAS Category Shift: Baseline Stage 4 to Last Observed Stage 1: 2 (11.8) Number (%) of Subjects
  Healed lesion PAS Category Shift: Baseline Stage 4 to Last Observed Stage 2: 1 (5.9) Number (%) of Subjects
  Healed lesion PAS Category Shift: Baseline Stage 4 to Last Observed Stage 3: 1 (5.9) Number (%) of Subjects
  Healed lesion PAS Category Shift: Baseline Stage 4 to Last Observed Stage 4: 1 (5.9) Number (%) of Subjects
  Healed lesion PAS: Last Observed PAS Result Stage 0: 3 (17.6) Number (%) of Subjects
  Healed lesion PAS: Last Observed PAS Result Stage 1: 9 (52.9) Number (%) of Subjects
  Healed lesion PAS: Last Observed PAS Result Stage 2: 2 (11.8) Number (%) of Subjects
  Healed lesion PAS: Last Observed PAS Result Stage 3: 3 (17.6) Number (%) of Subjects
  Healed lesion PAS: Last Observed PAS Result Stage 4: 1 (5.9) Number (%) of Subjects
[2]
  Healed lesion PAS Category Shift: Baseline Stage 0 to Last Observed Stage 0: 1 (7.1%) Number (%) of Subjects
  Healed lesion PAS Category Shift: Baseline Stage 0 to Last Observed Stage 1: 0 Number (%) of Subjects
  Healed lesion PAS Category Shift: Baseline Stage 0 to Last Observed Stage 2: 0 Number (%) of Subjects
  Healed lesion PAS Category Shift: Baseline Stage 0 to Last Observed Stage 3: 0 Number (%) of Subjects
  Healed lesion PAS Category Shift: Baseline Stage 0 to Last Observed Stage 4: 0 Number (%) of Subjects
  Healed lesion PAS Category Shift: Baseline Stage 1 to Last Observed Stage 0: 0 Number (%) of Subjects
  Healed lesion PAS Category Shift: Baseline Stage 1 to Last Observed Stage 1: 2 (14.3) Number (%) of Subjects
  Healed lesion PAS Category Shift: Baseline Stage 1 to Last Observed Stage 2: 1 (7.1) Number (%) of Subjects
  Healed lesion PAS Category Shift: Baseline Stage 1 to Last Observed Stage 3: 0 Number (%) of Subjects
  Healed lesion PAS Category Shift: Baseline Stage 1 to Last Observed Stage 4: 0 Number (%) of Subjects
  Healed lesion PAS Category Shift: Baseline Stage 2 to Last Observed Stage 0: 0 Number (%) of Subjects
  Healed lesion PAS Category Shift: Baseline Stage 2 to Last Observed Stage 1: 3 (21.4) Number (%) of Subjects
  Healed lesion PAS Category Shift: Baseline Stage 2 to Last Observed Stage 2: 0 Number (%) of Subjects
  Healed lesion PAS Category Shift: Baseline Stage 2 to Last Observed Stage 3: 0 Number (%) of Subjects
  Healed lesion PAS Category Shift: Baseline Stage 2 to Last Observed Stage 4: 0 Number (%) of Subjects
  Healed lesion PAS Category Shift: Baseline Stage 3 to Last Observed Stage 0: 0 Number (%) of Subjects
  Healed lesion PAS Category Shift: Baseline Stage 3 to Last Observed Stage 1: 0 Number (%) of Subjects
  Healed lesion PAS Category Shift: Baseline Stage 3 to Last Observed Stage 2: 0 Number (%) of Subjects
  Healed lesion PAS Category Shift: Baseline Stage 3 to Last Observed Stage 3: 2 (14.3) Number (%) of Subjects
  Healed lesion PAS Category Shift: Baseline Stage 3 to Last Observed Stage 4: 0 Number (%) of Subjects
  Healed lesion PAS Category Shift: Baseline Stage 4 to Last Observed Stage 0: 1 (7.1) Number (%) of Subjects
  Healed lesion PAS Category Shift: Baseline Stage 4 to Last Observed Stage 1: 1 (7.1) Number (%) of Subjects
  Healed lesion PAS Category Shift: Baseline Stage 4 to Last Observed Stage 2: 1 (7.1) Number (%) of Subjects
  Healed lesion PAS Category Shift: Baseline Stage 4 to Last Observed Stage 3: 1 (7.1) Number (%) of Subjects
  Healed lesion PAS Category Shift: Baseline Stage 4 to Last Observed Stage 4: 1 (7.1) Number (%) of Subjects
  Healed lesion PAS: Last Observed PAS Result Stage 0: 2 (14.3) Number (%) of Subjects
  Healed lesion PAS: Last Observed PAS Result Stage 1: 6 (42.9) Number (%) of Subjects
  Healed lesion PAS: Last Observed PAS Result Stage 2: 2 (14.3) Number (%) of Subjects
  Healed lesion PAS: Last Observed PAS Result Stage 3: 3 (21.4) Number (%) of Subjects
  Healed lesion PAS: Last Observed PAS Result Stage 4: 1 (7.1) Number (%) of Subjects
